Where a name gives a salt, the structure may show the parent alone. Read-outs that look alike come from different tables or passages of the source.
Test system: MV-4-11 cells
Test: AML cell viability assay (RealTime-Glo)
Assay type: cell-based
Conditions: Homo sapiens, read-out: Cell viability classification
[1] = MV4-11, IC50 class, MV-4-11 cells, RealTime-Glo after 44 hrs of treatment (TABLE 1)
[2] = MV4-11, IC50 class, MV-4-11 cells, RealTime-Glo after 44 hrs of treatment (TABLE 2)

IC50 [1] [µM]	IC50 [2] [µM]	Structure (SMILES)	other results
> 1	–	CCCN(CCN)c1cccc2c1CN(C1CCC(=O)NC1=O)C2=O (stereo not shown) [Compound 49, 3-(4-((2-aminoethyl)(propyl)amino)-1-oxoisoindolin-2-yl)piperidine-2,6-dione]	–
0.1 to 1	–	CCCN(CCCN)c1cccc2c1CN(C1CCC(=O)NC1=O)C2=O (stereo not shown) [Compound 53, 3-(4-((3-aminopropyl)(propyl)amino)-1-oxoisoindolin-2-yl)piperidine-2,6-dione]	–
–	< 0.1	CCCCCN(C[C@H]1CC[C@@H](N)CC1)c1cccc2c1CN(C1CCC(=O)NC1=O)C2=O (stereo partly shown) [Compound 91, 3-(4-((((1s,4s)-4-aminocyclohexyl)methyl)(pentyl)amino)-1-oxoisoindolin-2-yl)piperidine-2,6-dione, HCl]	–
–	< 0.1	CCCCCN(C[C@H]1CC[C@H](N)CC1)c1cccc2c1CN(C1CCC(=O)NC1=O)C2=O (stereo partly shown) [Compound 92, 3-(4-((((1r,4r)-4-aminocyclohexyl)methyl)(pentyl)amino)-1-oxoisoindolin-2-yl)piperidine-2,6-dione, HCl]	–
–	0.1 to 1	NCCCCN(CCCCN)c1cccc2c1CN(C1CCC(=O)NC1=O)C2=O (stereo not shown) [Compound 96, 3-(4-(bis(4-aminobutyl)amino)-1-oxoisoindolin-2-yl)piperidine-2,6-dione dihydrochloride]	–
–	> 1	NCCCCN(CCCN)c1cccc2c1CN(C1CCC(=O)NC1=O)C2=O (stereo not shown) [Compound 97, 3-(4-((4-aminobutyl)(3-aminopropyl)amino)-1-oxoisoindolin-2-yl)piperidine-2,6-dione dihydrochloride]	–
–	0.1 to 1	NCCCCN(c1cccc2c1CN(C1CCC(=O)NC1=O)C2=O)[C@H]1CC[C@@H](N)CC1 (stereo partly drawn) [Compound 102, 3-(4-((4-aminobutyl)((1S,4S)-4-aminocyclohexyl)amino)-1-oxoisoindolin-2-yl)piperidine-2,6-dione dihydrochloride]	–
–	0.1 to 1	NCCCCN(c1cccc2c1CN(C1CCC(=O)NC1=O)C2=O)[C@H]1CC[C@H](N)CC1 (stereo partly shown) [Compound 103, 3-(4-((4-aminobutyl)((1r,4r)-4-aminocyclohexyl)amino)-1-oxoisoindolin-2-yl)piperidine-2,6-dione, 2HCl]	–
–	0.1 to 1	NCCCCN(c1cccc2c1CN(C1CCC(=O)NC1=O)C2=O)[C@H]1CC[C@@H](CN)CC1 (stereo partly shown) [Compound 104, 3-(4-((4-aminobutyl)((1s,4s)-4-(aminomethyl)cyclohexyl)amino)-1-oxoisoindolin-2-yl)piperidine-2,6-dione dihydrochloride]	–
–	0.1 to 1	NCCCCN(c1cccc2c1CN(C1CCC(=O)NC1=O)C2=O)[C@H]1CC[C@H](CN)CC1 (stereo partly drawn) [Compound 105, 3-(4-((4-aminobutyl)((1R,4R)-4-(aminomethyl)cyclohexyl)amino)-1-oxoisoindolin-2-yl)piperidine-2,6-dione, 2HCl]	–
–	0.1 to 1	NCCCCN(C[C@H]1CC[C@@H](N)CC1)c1cccc2c1CN(C1CCC(=O)NC1=O)C2=O (stereo partly shown) [Compound 106, 3-(4-((4-aminobutyl)(((1s,4s)-4-aminocyclohexyl)methyl)amino)-1-oxoisoindolin-2-yl)piperidine-2,6-dione, 2HCl]	–
–	0.1 to 1	NCCCCN(C[C@H]1CC[C@H](N)CC1)c1cccc2c1CN(C1CCC(=O)NC1=O)C2=O (stereo partly shown) [Compound 107, 3-(4-((4-aminobutyl)(((1r,4r)-4-aminocyclohexyl)methyl)amino)-1-oxoisoindolin-2-yl)piperidine-2,6-dione, HCl]	–
–	< 0.1	C[C@H]1CC[C@@H](N(CCCCN)c2cccc3c2CN(C2CCC(=O)NC2=O)C3=O)CC1 (stereo partly shown) [Compound 108, 3-(4-((4-aminobutyl)((1s,4s)-4-methylcyclohexyl)amino)-1-oxoisoindolin-2-yl)piperidine-2,6-dione hydrochloride]	–
–	0.1 to 1	C[C@H]1CC[C@H](N(CCCCN)c2cccc3c2CN(C2CCC(=O)NC2=O)C3=O)CC1 (stereo partly shown) [Compound 109, 3-(4-((4-aminobutyl)((1r,4r)-4-methylcyclohexyl)amino)-1-oxoisoindolin-2-yl)piperidine-2,6-dione hydrochloride]	–
–	< 0.1	CCCCCN(CCC(C)(C)CN)c1cccc2c1CN(C1CCC(=O)NC1=O)C2=O (stereo not shown) [Compound 123, 3-(4-((4-amino-3,3-dimethylbutyl)(pentyl)amino)-1-oxoisoindolin-2-yl)piperidine-2,6-dione hydrochloride]	–
–	< 0.1	CC(C)(CN)CCN(CCCCN)c1cccc2c1CN(C1CCC(=O)NC1=O)C2=O (stereo not shown) [Compound 124, 3-(4-((4-amino-3,3-dimethylbutyl)(4-aminobutyl)amino)-1-oxoisoindolin-2-yl)piperidine-2,6-dione dihydrochloride]	–
–	0.1 to 1	CC(C)(CCN)CCN(CCCCN)c1cccc2c1CN(C1CCC(=O)NC1=O)C2=O (stereo not shown) [Compound 125, 3-(4-((5-amino-3,3-dimethylpentyl)(4-aminobutyl)amino)-1-oxoisoindolin-2-yl)piperidine-2,6-dione dihydrochloride]	–

IC50 [1] [µM]	IC50 [2] [µM]	Structure (SMILES)	other results
–	< 0.1	CC(C)(CN)CCCN(CCCCN)c1cccc2c1CN(C1CCC(=O)NC1=O)C2=O (stereo not shown) [Compound 126, 3-(4-((5-amino-4,4-dimethylpentyl)(4-aminobutyl)amino)-1-oxoisoindolin-2-yl)piperidine-2,6-dione dihydrochloride]	–
–	0.1 to 1	CCCCCN(CCCCNC(=O)NC)c1cccc2c1CN(C1CCC(=O)NC1=O)C2=O (stereo not shown) [Compound 143, 1-(4-((2-(2,6-dioxopiperidin-3-yl)-1-oxoisoindolin-4-yl)(pentyl)amino)butyl)-3-methylurea]	–
–	–	CCCCCN(CCCCNC(=O)CCC)c1cccc2c1CN(C1CCC(=O)NC1=O)C2=O (stereo not shown) [Compound 148, N-(4-((2-(2,6-dioxopiperidin-3-yl)-1-oxoisoindolin-4-yl)(pentyl)amino)butyl)butyramide]	IC50 (MV4-11, 44 h): 0.1 to 1 µM
–	–	CCCCCN(CCCCNC(=O)CC(C)C)c1cccc2c1CN(C1CCC(=O)NC1=O)C2=O (stereo not shown) [Compound 149, N-(4-((2-(2,6-dioxopiperidin-3-yl)-1-oxoisoindolin-4-yl)(pentyl)amino)butyl)-3-methylbutanamide]	IC50 (MV4-11, 44 h): > 1 µM
–	> 1	CCCCCN(CCCCNC(=O)CC(C)(C)C)c1cccc2c1CN(C1CCC(=O)NC1=O)C2=O (stereo not shown) [Compound 150, N-(4-((2-(2,6-dioxopiperidin-3-yl)-1-oxoisoindolin-4-yl)(pentyl)amino)butyl)-3,3-dimethylbutanamide]	–
–	> 1	CCCCCN(CCCCNC(=O)CC1CCCCC1)c1cccc2c1CN(C1CCC(=O)NC1=O)C2=O (stereo not shown) [Compound 151, 2-cyclohexyl-N-(4-((2-(2,6-dioxopiperidin-3-yl)-1-oxoisoindolin-4-yl)(pentyl)amino)butyl)acetamide]	–
–	0.1 to 1	CCCCCN(CCCCNC(=O)CNC)c1cccc2c1CN(C1CCC(=O)NC1=O)C2=O (stereo not shown) [Compound 181, N-(4-((2-(2,6-dioxopiperidin-3-yl)-1-oxoisoindolin-4-yl)(pentyl)amino)butyl)-2-(methylamino)acetamide]	–
0.1 to 1	–	N[C@H]1CC[C@H](N(CCc2ccccc2)c2cccc3c2CN(C2CCC(=O)NC2=O)C3=O)CC1 (stereo partly shown) [Compound 247, 3-(4-(((1r,4r)-4-aminocyclohexyl)(phenethyl)amino)-1-oxoisoindolin-2-yl)piperidine-2,6-dione, HCl]	–
< 0.1	–	CCCCCN(c1cccc2c1CN(C1CCC(=O)NC1=O)C2=O)[C@H]1CCC[C@H](N)C1 (stereo partly drawn) [Compound 327, 3-(4-(((1S,3S)-3-aminocyclohexyl)(pentyl)amino)-1-oxoisoindolin-2-yl)piperidine-2,6-dione]	–
< 0.1	–	CCCCCN(c1cccc2c1CN(C1CCC(=O)NC1=O)C2=O)[C@H]1CCC[C@@H](N)C1 (stereo partly drawn) [Compound 328, 3-(4-(((1S,3R)-3-aminocyclohexyl)(pentyl)amino)-1-oxoisoindolin-2-yl)piperidine-2,6-dione]	–
–	–	C[C@H]1CC[C@@H](N(c2cccc3c2CN(C2CCC(=O)NC2=O)C3=O)[C@H]2CC[C@H](N)CC2)CC1 (stereo partly drawn) [Compound 331, 3-(4-(((1r,4R)-4-aminocyclohexyl)((1s,4S)-4-methylcyclohexyl)amino)-1-oxoisoindolin-2-yl)piperidine-2,6-dione]	IC50 (MV4-11, IC50 class, MV-4-11 cells, RealTime-Glo after 44 hrs of treatment (TABLE 3)): > 1 µM
< 0.1	–	CC(C)(C)CCN(c1cccc2c1CN(C1CCC(=O)NC1=O)C2=O)[C@H]1CC[C@@H](CN)CC1 (stereo partly shown) [Compound 332, 3-(4-(((1s,4s)-4-(aminomethyl)cyclohexyl)(3,3-dimethylbutyl)amino)-1-oxoisoindolin-2-yl)piperidine-2,6-dione]	–
> 1	–	C[C@H]1CC[C@@H](N(c2cccc3c2CN(C2CCC(=O)NC2=O)C3=O)[C@H]2CC[C@@H](CN)CC2)CC1 (stereo partly drawn) [Compound 334, 3-(4-(((1s,4S)-4-(aminomethyl)cyclohexyl)((1s,4S)-4-methylcyclohexyl)amino)-1-oxoisoindolin-2-yl)piperidine-2,6-dione]	–
0.1 to 1	–	N[C@H]1CC[C@H](N(CCCC2CCCOC2)c2cccc3c2CN(C2CCC(=O)NC2=O)C3=O)CC1 (stereo partly shown) [Compound 340, 3-(4-(((1r,4r)-4-aminocyclohexyl)(3-(tetrahydro-2H-pyran-3-yl)propyl)amino)-1-oxoisoindolin-2-yl)piperidine-2,6-dione, HCl]	–
0.1 to 1	–	N[C@H]1CC[C@H](N(CCCC2CCCCO2)c2cccc3c2CN(C2CCC(=O)NC2=O)C3=O)CC1 (stereo partly shown) [Compound 341, 3-(4-(((1r,4r)-4-aminocyclohexyl)(3-(tetrahydro-2H-pyran-2-yl)propyl)amino)-1-oxoisoindolin-2-yl)piperidine-2,6-dione, HCl]	–
0.1 to 1	–	N[C@H]1CC[C@H](N(CCC=C2CCOCC2)c2cccc3c2CN(C2CCC(=O)NC2=O)C3=O)CC1 (stereo partly shown) [Compound 344, 3-(4-(((1r,4r)-4-aminocyclohexyl)(3-(tetrahydro-4H-pyran-4-ylidene)propyl)amino)-1-oxoisoindolin-2-yl)piperidine-2,6-dione. Formic Acid]	–
0.1 to 1	–	N[C@H]1CC[C@H](N(CCCC2CCOC2)c2cccc3c2CN(C2CCC(=O)NC2=O)C3=O)CC1 (stereo partly shown) [Compound 345, 3-(4-(((1r,4r)-4-aminocyclohexyl)(3-(tetrahydrofuran-3-yl)propyl)amino)-1-oxoisoindolin-2-yl)piperidine-2,6-dione]	–

Reference: patent US20250188069A1, “COMPOUNDS AND METHODS FOR DEGRADING CASEIN KINASE 1 ALPHA” (PIN THERAPEUTICS, INC., priority 2022, published 2025)
